Experimental data reported in patent publication US8415469B2, “Compounds and methods for kinase modulation, and indications therefor” (Plexxikon Inc., priority 2005, dated 2013).

Experiments:
Assay type in all cases: biochemical
Jnk1 = molecular target: T1, Jnk1 (Homo sapiens, UniProt P45983); experiment: AlphaScreen kinase assay, Jnk1; conditions: read-out: IC50, activity toward kinase Jnk1
T1 construct: purchased Upstate Biotechnology

Fms = molecular target: T2, Fms (Homo sapiens, UniProt P07333); experiment: AlphaScreen kinase assay, Fms; conditions: read-out: IC50, activity toward kinase Fms
T2 construct: purchased Upstate Biotechnology
T2 sequence (P07333 20-972): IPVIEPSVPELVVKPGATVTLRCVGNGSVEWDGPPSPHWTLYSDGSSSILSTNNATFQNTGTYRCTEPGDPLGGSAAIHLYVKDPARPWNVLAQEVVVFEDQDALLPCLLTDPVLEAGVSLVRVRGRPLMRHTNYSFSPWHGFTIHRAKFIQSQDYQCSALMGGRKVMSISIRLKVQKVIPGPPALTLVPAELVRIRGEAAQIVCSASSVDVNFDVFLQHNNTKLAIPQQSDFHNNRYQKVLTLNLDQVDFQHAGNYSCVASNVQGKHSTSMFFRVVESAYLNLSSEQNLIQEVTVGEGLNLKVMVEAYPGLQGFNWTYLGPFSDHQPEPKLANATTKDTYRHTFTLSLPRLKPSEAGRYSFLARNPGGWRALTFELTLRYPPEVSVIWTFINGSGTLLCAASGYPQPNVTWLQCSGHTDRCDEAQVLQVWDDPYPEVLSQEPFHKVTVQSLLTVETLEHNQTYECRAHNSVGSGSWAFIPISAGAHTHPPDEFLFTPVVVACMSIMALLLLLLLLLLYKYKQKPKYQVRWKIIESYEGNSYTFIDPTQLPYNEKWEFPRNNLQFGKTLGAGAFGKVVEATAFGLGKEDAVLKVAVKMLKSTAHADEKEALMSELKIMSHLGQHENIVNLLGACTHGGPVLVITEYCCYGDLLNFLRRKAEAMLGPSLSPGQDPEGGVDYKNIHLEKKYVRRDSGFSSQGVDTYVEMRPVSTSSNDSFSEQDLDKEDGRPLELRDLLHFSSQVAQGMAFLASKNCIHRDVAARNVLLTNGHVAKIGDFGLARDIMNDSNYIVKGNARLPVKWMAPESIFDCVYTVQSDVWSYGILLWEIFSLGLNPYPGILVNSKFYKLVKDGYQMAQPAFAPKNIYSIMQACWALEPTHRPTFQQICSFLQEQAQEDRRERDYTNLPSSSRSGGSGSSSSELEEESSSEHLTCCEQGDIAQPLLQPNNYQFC

FGFR1 = molecular target: T3, FGFR1 (Homo sapiens, UniProt P11362, C488A/C584S); experiment: AlphaScreen kinase assay, FGFR1; conditions: read-out: IC50, activity toward kinase FGFR
T3 construct: P1351.pET N6 BI-PTP FGFR A458-E765-X C488A, C584S; made in house; host or cells: E. coli (PTP1B co-expressed)
T3 sequence (P11362 458-765 C488A/C584S): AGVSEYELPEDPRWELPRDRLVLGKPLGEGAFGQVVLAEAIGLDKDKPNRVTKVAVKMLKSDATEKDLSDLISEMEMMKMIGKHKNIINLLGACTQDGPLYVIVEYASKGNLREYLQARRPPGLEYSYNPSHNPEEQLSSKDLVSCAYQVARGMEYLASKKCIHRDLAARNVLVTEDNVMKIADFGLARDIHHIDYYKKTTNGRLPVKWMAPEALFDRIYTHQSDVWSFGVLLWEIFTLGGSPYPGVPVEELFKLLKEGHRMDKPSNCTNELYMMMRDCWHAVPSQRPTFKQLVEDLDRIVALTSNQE

Jnk2 = molecular target: T4, Jnk2 (Homo sapiens, UniProt P45984); experiment: AlphaScreen kinase assay, Jnk2; conditions: read-out: IC50, activity toward kinase Jnk2
T4 construct: purchased Roche Protein Expression Group (Indianapolis, IN)
T4 sequence (P45984 whole entry): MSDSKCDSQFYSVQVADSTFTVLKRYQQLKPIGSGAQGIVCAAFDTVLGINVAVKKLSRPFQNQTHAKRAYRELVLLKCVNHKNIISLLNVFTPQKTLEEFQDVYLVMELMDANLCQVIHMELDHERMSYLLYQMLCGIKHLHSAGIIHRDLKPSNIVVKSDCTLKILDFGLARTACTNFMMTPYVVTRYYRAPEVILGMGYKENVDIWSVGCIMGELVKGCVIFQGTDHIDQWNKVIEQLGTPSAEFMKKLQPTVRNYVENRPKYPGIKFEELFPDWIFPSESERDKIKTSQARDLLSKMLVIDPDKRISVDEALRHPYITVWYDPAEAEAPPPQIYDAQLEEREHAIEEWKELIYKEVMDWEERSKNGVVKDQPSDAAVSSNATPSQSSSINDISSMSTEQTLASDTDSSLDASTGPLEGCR
Summary of the method: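 Here, phosphorylation of a biotin-tagged peptide was sensed by proximity of streptavidin donor and antibody-bearing acceptor beads. Test compounds covered 8 concentrations by 1:3 serial dilution of 20 mM DMSO stocks.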

Flt1 = molecular target: T5, Flt1 (Homo sapiens, UniProt P17948); experiment: AlphaScreen kinase assay, Flt1; conditions: read-out: IC50, activity toward kinase Flt1
T5 construct: P1826.pETN6 BI-PTP FLT1 M799-D1165-X WT; His6 (N); made in house; host or cells: E. coli (PTP1B co-expressed)
T5 sequence (P17948 with tags, fused parts or gaps): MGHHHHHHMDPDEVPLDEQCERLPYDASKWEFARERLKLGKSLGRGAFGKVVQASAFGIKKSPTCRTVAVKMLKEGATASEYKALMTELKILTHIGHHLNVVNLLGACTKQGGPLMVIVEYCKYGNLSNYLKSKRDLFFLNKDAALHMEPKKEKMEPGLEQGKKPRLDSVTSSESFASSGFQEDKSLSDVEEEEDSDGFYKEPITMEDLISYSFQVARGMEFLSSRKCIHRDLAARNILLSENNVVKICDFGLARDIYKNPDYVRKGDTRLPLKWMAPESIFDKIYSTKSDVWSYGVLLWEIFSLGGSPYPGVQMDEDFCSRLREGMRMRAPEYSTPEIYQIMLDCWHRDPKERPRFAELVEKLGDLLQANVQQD

B-Raf V600E = molecular target: T6, B-Raf V600E (Homo sapiens, UniProt P15056, V600E); experiment: AlphaScreen kinase assay, B-Raf V600E; conditions: read-out: IC50, activity toward kinase B-Raf V600E
T6 construct: P4254. pFastBacBD-CDC37 BRAF D437-K722-X, V600E; His6 with pFastBac HT leader (TEV site) (N); made in house; host or cells: Sf9 (baculovirus; chaperone CDC37 co-expressed)
T6 sequence (P15056 with tags, fused parts or gaps V600E): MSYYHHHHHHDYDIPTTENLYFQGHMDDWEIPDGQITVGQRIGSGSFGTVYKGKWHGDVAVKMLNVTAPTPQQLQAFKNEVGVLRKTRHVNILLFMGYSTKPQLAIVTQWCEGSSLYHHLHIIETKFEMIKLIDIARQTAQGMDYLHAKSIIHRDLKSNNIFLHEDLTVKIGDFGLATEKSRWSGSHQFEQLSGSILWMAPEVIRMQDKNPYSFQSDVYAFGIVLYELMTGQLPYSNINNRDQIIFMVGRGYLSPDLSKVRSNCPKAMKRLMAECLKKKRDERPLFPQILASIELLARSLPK

Jnk3 = molecular target: T7, Jnk3 (Homo sapiens, UniProt P53779); experiment: AlphaScreen kinase assay, Jnk3; conditions: read-out: IC50, activity toward kinase Jnk3
T7 construct: purchased Upstate Biotechnology
T7 sequence (P53779 whole entry): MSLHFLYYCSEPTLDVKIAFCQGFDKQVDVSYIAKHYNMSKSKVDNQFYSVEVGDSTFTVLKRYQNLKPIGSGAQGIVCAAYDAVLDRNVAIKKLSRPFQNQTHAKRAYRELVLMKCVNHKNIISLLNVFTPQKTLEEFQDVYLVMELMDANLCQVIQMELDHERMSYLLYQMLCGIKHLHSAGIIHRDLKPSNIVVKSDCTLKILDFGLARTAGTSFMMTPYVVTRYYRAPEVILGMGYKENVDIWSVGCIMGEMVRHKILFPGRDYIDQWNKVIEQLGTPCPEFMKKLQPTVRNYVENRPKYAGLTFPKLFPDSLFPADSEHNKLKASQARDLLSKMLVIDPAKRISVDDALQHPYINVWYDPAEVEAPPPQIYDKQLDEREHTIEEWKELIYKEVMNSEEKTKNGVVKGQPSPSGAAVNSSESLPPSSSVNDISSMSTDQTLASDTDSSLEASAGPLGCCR

B-Raf = molecular target: T8, B-Raf (Homo sapiens, UniProt P15056); experiment: AlphaScreen kinase assay, B-Raf; conditions: read-out: IC50, activity toward kinase B-Raf
T8 construct: purchased Upstate Biotechnology
T8 sequence (P15056 whole entry): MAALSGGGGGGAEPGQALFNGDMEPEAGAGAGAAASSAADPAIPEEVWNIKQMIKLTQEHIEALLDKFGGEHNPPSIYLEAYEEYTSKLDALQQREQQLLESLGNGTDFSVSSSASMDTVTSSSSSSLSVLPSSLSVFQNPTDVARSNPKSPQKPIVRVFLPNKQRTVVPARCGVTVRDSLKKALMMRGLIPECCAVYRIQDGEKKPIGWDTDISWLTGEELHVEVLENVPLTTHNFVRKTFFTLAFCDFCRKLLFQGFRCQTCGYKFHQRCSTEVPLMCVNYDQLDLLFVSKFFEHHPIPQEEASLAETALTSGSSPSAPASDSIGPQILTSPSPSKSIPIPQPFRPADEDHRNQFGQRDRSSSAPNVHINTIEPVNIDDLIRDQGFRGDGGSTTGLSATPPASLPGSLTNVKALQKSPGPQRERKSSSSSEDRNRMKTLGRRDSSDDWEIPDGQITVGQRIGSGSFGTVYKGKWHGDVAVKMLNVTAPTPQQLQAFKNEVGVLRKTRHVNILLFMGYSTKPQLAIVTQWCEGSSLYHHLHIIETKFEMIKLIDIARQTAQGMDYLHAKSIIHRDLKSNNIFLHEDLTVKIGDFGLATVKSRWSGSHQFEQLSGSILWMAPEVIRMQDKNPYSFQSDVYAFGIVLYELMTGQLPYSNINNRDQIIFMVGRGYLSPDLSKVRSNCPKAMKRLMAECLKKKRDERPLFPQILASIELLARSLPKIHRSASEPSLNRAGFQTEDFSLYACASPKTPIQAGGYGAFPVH

Kit = molecular target: T9, Kit (Homo sapiens, UniProt P10721); experiment: AlphaScreen kinase assay, Kit; conditions: read-out: IC50, activity toward kinase Kit
T9 construct: P1332.N6 BI PTP KIT M552-K948-X COD; His6 (N); made in house; host or cells: E. coli (PTP1B co-expressed)
T9 sequence (P10721 with tags, fused parts or gaps): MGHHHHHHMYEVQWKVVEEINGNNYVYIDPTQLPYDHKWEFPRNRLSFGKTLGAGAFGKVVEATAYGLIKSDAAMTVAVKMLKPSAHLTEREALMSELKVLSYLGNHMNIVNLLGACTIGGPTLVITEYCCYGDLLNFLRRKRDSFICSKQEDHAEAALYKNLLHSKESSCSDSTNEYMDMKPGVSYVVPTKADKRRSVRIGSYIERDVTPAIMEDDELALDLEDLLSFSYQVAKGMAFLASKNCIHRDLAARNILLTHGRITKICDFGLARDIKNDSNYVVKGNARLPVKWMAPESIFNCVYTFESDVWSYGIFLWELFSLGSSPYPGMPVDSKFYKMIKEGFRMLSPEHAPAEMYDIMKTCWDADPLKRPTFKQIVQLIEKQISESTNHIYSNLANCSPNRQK

Src = molecular target: T10, Src (Homo sapiens, UniProt P12931); experiment: AlphaScreen kinase assay, Src; conditions: read-out: IC50, activity toward kinase Src
T10 construct: P1144. pET-N6 BI-PTP SRC V86-L536-X; made in house

Fak = molecular target: T11, Fak (Homo sapiens, UniProt Q05397); experiment: AlphaScreen kinase assay, Fak; conditions: read-out: IC50, activity toward kinase Fak
T11 construct: P1358.pFastBacHtb FAK S411-Q686-X; His6 with pFastBacHTb leader (TEV site) (N); made in house; host or cells: Sf9 (baculovirus)
T11 sequence (Q05397 411-686): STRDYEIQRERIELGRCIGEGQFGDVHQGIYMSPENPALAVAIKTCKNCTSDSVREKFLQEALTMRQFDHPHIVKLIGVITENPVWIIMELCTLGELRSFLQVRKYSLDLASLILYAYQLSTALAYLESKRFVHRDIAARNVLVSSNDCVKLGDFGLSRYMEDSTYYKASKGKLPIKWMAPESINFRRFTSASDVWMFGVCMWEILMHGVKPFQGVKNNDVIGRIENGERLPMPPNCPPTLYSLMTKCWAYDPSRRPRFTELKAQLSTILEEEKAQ

c-Raf-1 = molecular target: T12, c-Raf-1 (Homo sapiens, UniProt P04049); experiment: AlphaScreen kinase assay, c-Raf-1; conditions: read-out: IC50, activity toward kinase c-Raf-1
T12 construct: purchased Upstate Biotechnology
T12 sequence (P04049 whole entry): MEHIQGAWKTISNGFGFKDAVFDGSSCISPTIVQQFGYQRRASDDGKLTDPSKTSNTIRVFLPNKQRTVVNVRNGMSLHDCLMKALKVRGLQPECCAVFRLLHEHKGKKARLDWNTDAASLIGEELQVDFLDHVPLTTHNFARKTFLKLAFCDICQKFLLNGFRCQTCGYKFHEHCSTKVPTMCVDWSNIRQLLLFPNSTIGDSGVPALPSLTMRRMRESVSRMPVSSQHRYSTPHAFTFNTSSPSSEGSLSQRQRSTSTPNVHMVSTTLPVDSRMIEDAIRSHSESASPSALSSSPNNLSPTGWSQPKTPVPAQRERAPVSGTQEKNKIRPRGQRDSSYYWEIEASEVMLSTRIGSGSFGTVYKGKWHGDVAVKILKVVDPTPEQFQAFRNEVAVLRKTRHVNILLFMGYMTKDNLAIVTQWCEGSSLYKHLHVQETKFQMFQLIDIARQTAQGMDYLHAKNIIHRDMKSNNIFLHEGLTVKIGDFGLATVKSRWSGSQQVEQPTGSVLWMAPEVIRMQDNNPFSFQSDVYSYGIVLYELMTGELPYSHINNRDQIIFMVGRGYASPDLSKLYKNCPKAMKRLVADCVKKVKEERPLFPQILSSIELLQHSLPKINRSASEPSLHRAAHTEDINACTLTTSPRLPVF

Kdr = molecular target: T13, Kdr (Homo sapiens, UniProt P35968); experiment: Z'-Lyte FRET kinase assay (Invitrogen), Kdr; conditions: read-out: IC50, activity toward kinase Kdr
T13 construct: purchased Invitrogen (assay run by Invitrogen)

Ret = molecular target: T14, Ret (Homo sapiens, UniProt P07949); experiment: AlphaScreen kinase assay, Ret; conditions: read-out: IC50, activity toward kinase Ret
T14 construct: P1378.pET-SF BI-PTP RET H661-R1012 HIS; made in house
T14 sequence (P07949 with tags, fused parts or gaps): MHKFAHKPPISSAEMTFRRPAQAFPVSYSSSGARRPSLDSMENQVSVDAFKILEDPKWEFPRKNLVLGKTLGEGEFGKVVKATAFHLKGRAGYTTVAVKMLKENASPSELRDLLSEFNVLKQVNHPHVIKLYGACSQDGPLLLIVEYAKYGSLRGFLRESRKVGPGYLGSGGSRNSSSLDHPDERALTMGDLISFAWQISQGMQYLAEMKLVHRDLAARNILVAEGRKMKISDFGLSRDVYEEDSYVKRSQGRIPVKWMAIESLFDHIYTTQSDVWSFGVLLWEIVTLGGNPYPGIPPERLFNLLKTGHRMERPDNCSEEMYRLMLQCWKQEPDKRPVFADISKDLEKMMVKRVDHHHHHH

Measured: IC50

T1 sequence (P45983 whole entry): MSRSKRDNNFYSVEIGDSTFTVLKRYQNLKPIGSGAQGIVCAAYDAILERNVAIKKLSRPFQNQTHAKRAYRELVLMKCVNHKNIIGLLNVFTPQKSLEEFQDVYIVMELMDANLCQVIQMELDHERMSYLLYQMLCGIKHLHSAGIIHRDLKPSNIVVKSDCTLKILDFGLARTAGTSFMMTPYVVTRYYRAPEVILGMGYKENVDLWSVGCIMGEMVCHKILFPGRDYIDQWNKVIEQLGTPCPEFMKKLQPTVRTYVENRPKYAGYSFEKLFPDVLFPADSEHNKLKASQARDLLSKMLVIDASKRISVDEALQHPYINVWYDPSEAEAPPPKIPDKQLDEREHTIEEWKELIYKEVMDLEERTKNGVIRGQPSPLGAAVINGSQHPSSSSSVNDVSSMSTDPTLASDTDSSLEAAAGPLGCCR

O=C(NCc1ccccc1)Nc1cccc(C(=O)c2c[nH]c3ncc(-c4cccnc4)cc23)c1 [Compound P-1554, 1-Benzyl-3-[3-(5-pyridin-3-yl-1H-pyrrolo[2,3-b]pyridine-3-carbonyl)-phenyl]-urea]
not listed: Src | Fak | c-Raf-1 | Kdr | Ret
≤ 10 µM: all other assays above

CCCCNC(=O)Nc1cccc(Cc2c[nH]c3ncc(-c4cccnc4)cc23)c1 [Compound P-1447, 1-butyl-3-[3-(5-pyridin-3-yl-1H-pyrrolo[2,3-b]pyridin-3-ylmethyl)-phenyl]-urea]
not listed: c-Raf-1 | Kdr | Ret
≤ 10 µM: all other assays above

CCCS(=O)(=O)Nc1ccc(F)c(C(=O)c2c[nH]c3ncc(-c4ccc(C(=O)N(C)C)cc4)cc23)c1F [Compound P-1547, 4-{3-[2,6-Difluoro-3-(propane-1-sulfonylamino)-benzoyl]-1H-pyrrolo[2,3-b]pyridin-5-yl}-N,N-dimethyl-benzamide]
not listed: Src | Fak | Kdr | Ret
≤ 10 µM: all other assays above

CCCS(=O)(=O)Nc1ccc(F)c(C(=O)c2c[nH]c3ncc(-c4cnn(C)c4)cc23)c1F [Compound P-1864, Propane-1-sulfonic acid {2,4-difluoro-3-[5-(1-methyl-1H-pyrazol-4-yl)-1H-pyrrolo[2,3-b]pyridine-3-carbonyl]-phenyl}-amide]
≤ 10 µM: Jnk1 | Fms | c-Raf-1 | Jnk2 | B-Raf V600E | Jnk3 | B-Raf | Kit

COCCNC(=O)Nc1cccc(C(=O)c2c[nH]c3ncc(-c4cccnc4)cc23)c1 [Compound P-1566, 1-(2-Methoxy-ethyl)-3-[3-(5-pyridin-3-yl-1H-pyrrolo[2,3-b]pyridine-3-carbonyl)-phenyl]-urea]
≤ 10 µM: Jnk1 | Fms | Jnk2 | Flt1 | B-Raf V600E | Jnk3 | B-Raf | Kit

NC(=O)Nc1ccc(F)c(C(=O)c2c[nH]c3ncc(Br)cc23)c1 [Compound P-1570, [3-(5-Bromo-1H-pyrrolo[2,3-b]pyridine-3-carbonyl)-4-fluoro-phenyl]-urea]
≤ 10 µM: Jnk1 | Fms | Jnk2 | Flt1 | B-Raf V600E | Jnk3 | B-Raf

CCCCNC(=O)n1ccc2c(C(=O)c3c[nH]c4ncc(-c5ccccc5)cc34)cccc21 [Compound P-1576, 4-(5-Phenyl-1H-pyrrolo[2,3-b]pyridine-3-carbonyl)-indole-1-carboxylic acid butylamide]
≤ 10 µM: Jnk1 | Fms | Jnk2 | Flt1 | B-Raf V600E | Jnk3 | B-Raf | Kit

CCCS(=O)(=O)Nc1ccc(F)c(C(=O)c2c[nH]c3ncc(-c4ccc(C(=O)N5CCOCC5)cc4)cc23)c1F [Compound P-1548, Propane-1-sulfonic acid (2,4-difluoro-3-{5-[4-(morpholine-4-carbonyl)-phenyl]-1H-pyrrolo[2,3]-pyridine-3-carbonyl}-phenyl)-amide]
not listed: Src | Fak | c-Raf-1 | Kdr | Ret
≤ 10 µM: all other assays above

CCCCNC(=O)Nc1ccc(F)c(C(=O)c2c[nH]c3ncc(-c4cccc(C(N)=O)c4)cc23)c1 [Compound P-1621, 3-{3-[5-(3-Butyl-ureido)-2-fluoro-benzoyl]-1H-pyrrolo[2,3-b]pyridin-5-yl}-benzamide]
≤ 10 µM: Jnk1 | Fms | FGFR1 | Jnk2 | Flt1 | B-Raf V600E | Jnk3 | B-Raf

CS(=O)(=O)Nc1ccc(F)c(C(=O)c2c[nH]c3ncc(-c4ccccc4)cc23)c1 [Compound P-0308, N-[4-Fluoro-3-(5-phenyl-1H-pyrrolo[2,3-b]pyridine-3-carbonyl)-phenyl]-methanesulfonamide]
≤ 10 µM: Jnk1 | FGFR1 | Kdr | Jnk2 | B-Raf V600E | Ret | Jnk3

CCCCNC(=O)Nc1ccc(F)c(C(=O)c2c[nH]c3ncc(OC)cc23)c1F [Compound P-1567, 1-Butyl-3-[2,4-difluoro-3-(5-methoxy-1H-pyrrolo[2,3-b]pyridine-3-carbonyl)-phenyl]-urea]
≤ 10 µM: Jnk1 | Fms | Jnk2 | Flt1 | B-Raf V600E | Jnk3 | B-Raf | Kit

O=C(Nc1ccccc1)Nc1cccc(C(=O)c2c[nH]c3ncc(-c4cccnc4)cc23)c1 [Compound P-1591, 1-Phenyl-3-[3-(5-pyridin-3-yl-1H-pyrrolo[2,3-b]pyridine-3-carbonyl)-phenyl]-urea]
not listed: Src | Fak | c-Raf-1 | Kdr | Ret
≤ 10 µM: all other assays above

NC(=O)Nc1ccc(F)c(C(=O)c2c[nH]c3ncc(-c4ccccc4)cc23)c1 [Compound P-1589, [4-Fluoro-3-(5-phenyl-1H-pyrrolo[2,3-b]pyridine-3-carbonyl)-phenyl]-urea]
≤ 10 µM: Jnk1 | Fms | FGFR1 | Jnk2 | Flt1 | B-Raf V600E | Jnk3 | B-Raf

Cc1noc(NC(=O)Nc2cccc(C(=O)c3c[nH]c4ncccc34)c2)c1C [Compound P-1767]
≤ 10 µM: Jnk1 | Fms | Jnk2 | B-Raf V600E | Jnk3 | B-Raf | Kit
